The assay concerns the target S. pyogenes SKKanGAS, kanamycin survival, BacTiterGlo, 6 h. Kind of assay: SKKanGAS survival reduction under kanamycin, dose response, streptokinase promoter inhibitor project, SKKanGAS strain, luminescence, dose confirmation (AID 1902).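 Note: lower survival reflects blocked streptokinase promoter driving kanamycin resistance gene.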

Activity calls are given as the source filed them.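 Rule for the calls: active = EC50 no more than a set limit of log units above the highest dose; inactive = the rest.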

Regarding `N#C/C(=C(/O)c1ccc2c(c1)OCO2)c1nc2cc(C(F)(F)F)ccc2s1`, the EC50 is 2430 nM.

On to `Cc1cc(C)n(-c2nc(NC(C)(C)C)nc(NC(C)(C)C)n2)n1`, for which the EC50 was 396 nM.

Turning to `Nc1ccc(C#Cc2ccc3oc4ccccc4c(=O)c3c2)cc1`, the EC50 is 1390 nM.

In the case of `N#C/C(=C(/O)Cc1cccc2ccccc12)c1nc2ccccc2s1`, the EC50 is 1360 nM.

With `Cc1ccc(-n2c(O)c(C=Nc3ccccc3-c3n[nH]c(=S)[nH]c3=O)c3ccccc3c2=O)cc1C`, the EC50 is 915 nM.

With `O=C(N/N=C/c1cc(Cl)cc([N+](=O)[O-])c1O)C(O)(c1ccccc1)c1ccccc1`, the 50% effective concentration (EC50) is 3380 nM.

Consider `Cc1onc(-c2c(F)cccc2Cl)c1C(=O)NCc1ccc2c(c1)OCO2`, for which the EC50 was > 15000 nM (inactive).

As for `CCNC(=O)c1c(NC(=O)c2cc(-c3cc(C)ccc3O)n[nH]2)sc2c1CCCC2`, the EC50 is 2440 nM.

For the compound `O=c1c2c([N+](=O)[O-])cc([N+](=O)[O-])cc2sn1Cc1ccccc1`, the EC50 is 6620 nM.

Take `CC(Oc1cccc(Cl)c1)C(=O)Nc1ccccc1N1CCCCC1` (stereo not drawn): the EC50 was 3040 nM.

On to `O=C(Cc1ccccc1)Nn1c(O)c(/C=C2\C=Nc3ccccc32)sc1=S`, for which the EC50 is 14600 nM.

`O=C(O)CN1C(=O)/C(=C\c2cc(Br)ccc2OCc2ccc(Cl)cc2)SC1=S`: the EC50 was 1560 nM.

Regarding `COC(=O)C1=NN(C(=O)c2cccc(Br)c2)C(O)(c2ccc(Cl)cc2)C1` (stereo not drawn), the EC50 was 1300 nM.

Regarding `Fc1ccc(-c2cc(C(F)(F)F)nc(N3CCCCC3)n2)cc1`, the EC50 is 4680 nM.

As for `Cc1nnc(Sc2cc(NCCCO)c([N+](=O)[O-])c3nonc23)s1`, the EC50 was 7780 nM.

`O=C(/C=C/c1cn(-c2ccccc2)nc1-c1ccccc1)Nc1ccc(C(=O)O)cc1`: the EC50 was 3760 nM.

`O=C(COc1ccc(Cl)cc1)Nc1nnc(-c2ccc3c(c2)CCCC3)o1`: the EC50 is 369 nM.

With `Cc1cccc(C(=O)NC(C(=O)Nc2nc(-c3ccccn3)cs2)C(C)C)c1` (stereo not drawn), the concentration for a half-maximal effect (EC50) was 5460 nM.

Take `Nc1nc(-c2ccccc2)c(N=Nc2cccc3ccccc23)s1`: the EC50 is 4000 nM.

As for `COc1ccc(-n2c(SCC(=O)Nc3ccccc3)nc(O)cc2=O)cc1`, the EC50 is 15200 nM.

As for `CNC[C@H](CC1CCCCC1)NC[C@H](Cc1ccccc1)NCCC12CC3CC(CC(C3)C1)C2`, the concentration for a half-maximal effect (EC50) was 2940 nM.

In the case of `CCOC(=O)c1ccc(NC(=O)c2nc[nH]c2C(=O)N[C@@H](CCCCNC(=O)OC(C)(C)C)C(=O)OC(C)(C)C)cc1`, the EC50 is 4720 nM.

With `CC(C)(C)c1ccc2c(c1)OC(C(=O)N/N=C/c1ccc([N+](=O)[O-])o1)CO2` (stereo not drawn), the EC50 was 3920 nM.

Take `Nc1n[nH]c(C2CC2)c1N=Nc1ccc(Cl)c(Cl)c1`: the concentration for a half-maximal effect (EC50) was 2050 nM.

For the compound `CC(C)C1OC2c3cccc4cccc(c34)C2N1c1ccccc1` (stereo not drawn), the EC50 is 2570 nM.

`CCn1cc(C(=O)O)c(=O)c2cc(F)c(N3CCN(C(=S)Nc4ccc(OC)cc4)CC3)cc21`: the half-maximal effective concentration (EC50) is 3180 nM.

Consider `CCCN(CCC)S(=O)(=O)c1ccc(C(=O)Nc2nnc(COC)o2)cc1`, for which the EC50 is 5000 nM.

On to `CC(C)(C)c1cc(-c2csc(Nc3ccccc3)[n+]2Cc2ccc(C(=O)O)cc2)cc(C(C)(C)C)c1O`, for which the EC50 is 2150 nM.

On to `COc1ccc(C(=O)NCC(=O)OCC(=O)N2N=C(c3ccc(Cl)cc3)CC2c2ccco2)cc1OC` (stereo not drawn), for which the EC50 is 15600 nM.

As to `O=C(NCc1ccccn1)C(=O)Nc1nc(C23CC4CC(CC(C4)C2)C3)cs1`, the EC50 was 1650 nM.

For the compound `O=C1C(Nc2ccc(O)cc2)=C/C(=N/S(=O)(=O)c2cccs2)c2ccccc21`, the EC50 was 1970 nM.

`C/C(=N\N=C(/N)SC1CC(=O)N(c2ccc(Cl)c(Cl)c2)C1=O)c1cccs1` (stereo not drawn): the EC50 was 2130 nM.

Turning to `O=C(Nc1ccc(OC(F)F)cc1)Nc1cccc(C(F)(F)F)c1`, the EC50 was 6700 nM.

Take `CCOC(=O)C1=Nc2ccccc2C1=[N+]=[N-]`: the EC50 is 248 nM.

On to `Cc1ccc(Cn2nnc3c(=O)[nH]c(C4CCN(S(=O)(=O)c5cc(C)ccc5C)CC4)nc32)cc1`, for which the EC50 is 6260 nM.

Consider `Cc1cccc(-n2c(N)c(-c3nc4ccccc4n3C)c3nc4ccccc4nc32)c1`, for which the EC50 was 2260 nM.

Take `Fc1cccc2sc(Nc3nc4cc5c(cc4s3)OCO5)nc12`: the EC50 is > 15000 nM (inactive).

With `O=C(Nc1ccc(Cl)c(Cl)c1)Nc1nccs1`, the EC50 is 8790 nM.

As for `O=C(NC(=S)NNC(=O)c1ccc(Cl)cc1Cl)c1cccnc1`, the EC50 is 3070 nM.

Turning to `C=CCSc1nc2ccccc2c(=O)n1Cc1ccccc1`, the EC50 was 15300 nM.

`O=C(OCc1ccccc1)c1cccc(-c2nnn(Cc3ccccc3)n2)c1`: the EC50 is 2730 nM.

As to `C/C(=N\NC(=O)c1ccc(C)cc1)c1c(C)[nH]n(-c2ccccc2)c1=O`, the EC50 is 2150 nM.

Take `CC1=NN(C(N)=S)C(=O)C1N=Nc1c(C)cc(C)cc1C` (stereo not drawn): the EC50 is 5770 nM.

For the compound `CC(C)c1ccc2c(c1)C1(NN=C(c3ccccc3)S1)C(=O)N2` (stereo not drawn), the 50% effective concentration (EC50) was under 60 nM.

As to `COc1cc(N=c2c([N+](=O)[O-])nn(-c3ccc4c(c3)OCCO4)n2O)cc(OC)c1`, the concentration for a half-maximal effect (EC50) was 5240 nM.

`O=C(N/N=C/c1cc(Br)ccc1O)C(=O)Nc1ccccc1OC(F)(F)C(F)F`: the EC50 was 1440 nM.

With `c1ccc2c(c1)nc(Nc1ccc(N3CCCCC3)cc1)c1nncn12`, the EC50 was 6030 nM.

Take `Cc1ccc(-c2cnc(N)n2C)cc1C`: the EC50 is 4130 nM.

On to `O=c1cc(/N=C/c2coc3c(ccc4ccccc43)c2=O)[nH]c(=S)[nH]1`, for which the EC50 is 1530 nM.

With `O=C(Nc1ccc(F)c(Cl)c1)Nc1csc2ccccc12`, the EC50 is 2790 nM.

Consider `COc1ccc(C(=O)CSc2nnc(CNC(=O)c3ccc(S(=O)(=O)N(C)C)cc3)o2)cc1`, for which the EC50 is > 15000 nM (inactive).

In the case of `O=C(/C=C/c1ccccc1)NC(=S)NNC(=O)Cc1cccs1`, the EC50 was 1470 nM.

On to `N=C1SC(c2ccccc2)C(=O)N1c1ncc(Cc2ccccc2Cl)s1` (stereo not drawn), for which the 50% effective concentration (EC50) is 177 nM.

On to `CCc1ccc(CNc2ccc3c(c2)ncn3C(C)(C)C)cc1`, for which the EC50 is 3300 nM.

Take `COc1ccccc1CN1CC(C(=O)NCc2ncccc2C)CCC1=O` (stereo not drawn): the EC50 was > 15000 nM (inactive).

As to `Cc1cc(C)n(-c2nc(SCC(=O)O)c3c4c(sc3n2)COC(C)(C)C4)n1`, the EC50 was 4310 nM.

For the compound `CSc1n[nH]c2nc3c(c(=O)n12)C1(CCCCC1)Cc1ccccc1-3`, the EC50 is 10500 nM.

Consider `CC1=C(C(=O)O)N2C(=O)C(NC(=O)Cc3ccccc3)C2SC1` (stereo not drawn), for which the EC50 is 1030 nM.

On to `CCOC(=O)c1ccc(-n2c(O)c(/C=N/NC(=O)C3COc4ccccc4O3)c3ccccc3c2=O)cc1` (stereo not drawn), for which the EC50 is 1550 nM.

Turning to `CC(C)(C)c1ccc(C(=O)NCc2nnc(SCC(=O)NC3CCCC3)o2)cc1`, the EC50 is > 15000 nM (inactive).

Consider `C/C(=N\Nc1cc(C)nc(-c2ccccc2O)n1)c1ccccc1O`, for which the EC50 was 5370 nM.

With `NC(=S)N=Nc1ccc(NN=C(N)N)cc1`, the EC50 was under 60 nM.

On to `Cc1ccc2sc(NNC(=O)c3cc(=O)c4ccccc4o3)nc2c1C`, for which the EC50 is 1180 nM.

With `CC1=NN(C(N)=S)C(=O)C1N=Nc1c(Br)cc(Br)cc1Br` (stereo not drawn), the EC50 is 2780 nM.

As for `N=C1SCC(=O)N1c1ncc(Cc2cccc(Cl)c2)s1`, the EC50 is 145 nM.

`Cc1cc(N/N=C\c2ccc(Br)cc2)nc(-n2nc(C)cc2C)n1`: the EC50 is 414 nM.

Consider `COc1ccc(-c2nnc(NC(=O)c3ccc(S(=O)(=O)N4CCCc5ccccc54)cc3)o2)cc1`, for which the EC50 is 149 nM.

In the case of `CCC[N+]1(CC#CC2(O)CCCCC2)CCOCC1`, the EC50 is > 15000 nM (inactive).

`CC(C)(O)c1[nH]c2cc(F)ccc2c1C(C)(C)O`: the EC50 is 1670 nM.

On to `O=C(NC(c1ccccc1)c1cc(Cl)c2cccnc2c1O)c1cccnc1` (stereo not drawn), for which the EC50 was 1380 nM.

For `O=[N+]([O-])c1ccc(O)c(Nc2ncnc3ccc(Br)cc23)c1`, the EC50 was 3320 nM.

With `Cc1cccc(C(=O)OCC(=O)Nc2nnc(-c3ccccc3)o2)c1O`, the 50% effective concentration (EC50) is 2200 nM.

For `CCCCC(=O)NC(=S)NNC(=O)CCc1ccccc1`, the EC50 was 5000 nM.

As to `CCCn1c(NC(=O)C23CC4CC(CC(O)(C4)C2)C3)nc2ccccc21`, the EC50 is 3090 nM.

Take `Cc1sc2ncnc(N/N=C/c3ccccc3O)c2c1C`: the EC50 was 4090 nM.

With `Nc1[nH]n2c(=O)cc(-c3ccccc3)nc2c1N=Nc1ccc2c(c1)OCO2`, the EC50 was 2250 nM.

With `CCN(CC)S(=O)(=O)c1cc(OC)ccc1N=Nc1ccc(O)c2ncccc12`, the EC50 was 1920 nM.

Take `O=C(Nc1cccc(-c2nc3ccccc3[nH]2)c1)c1ccc(C(=O)Nc2cccc(-c3nc4ccccc4[nH]3)c2)cc1`: the EC50 is > 15000 nM (inactive).

Regarding `Cc1ccc(NC(=O)c2nc[nH]c2C(=O)N[C@@H](C)c2ccccc2)cc1`, the concentration for a half-maximal effect (EC50) was 1130 nM.

For the compound `Cc1[nH]c2ccccc2c1C(c1ccccn1)c1c(C)[nH]c2ccccc12`, the EC50 was 8630 nM.

Regarding `CC(C)c1ccc(C(=O)NC(=S)Nc2ccc3[nH]c(=O)[nH]c3c2)cc1`, the half-maximal effective concentration (EC50) was 6260 nM.

`Cc1noc(NS(=O)(=O)c2ccc(NC(=O)c3oc4ccc(Cl)cc4c3C)cc2)c1C`: the EC50 was 6630 nM.

On to `CCc1ccc(N(CC(=O)NC2CC2)S(=O)(=O)c2ccc(C)cc2)cc1`, for which the EC50 was > 15000 nM (inactive).

With `COc1ccc(C(=O)CSc2nc(-c3ccccn3)nc(C)c2Cl)cc1`, the EC50 is 1400 nM.

Consider `COc1ccc(/C=C/c2ccc3cccc(O)c3n2)cc1Br`, for which the EC50 is 419 nM.

For the compound `O=C(NC(=S)NNC(=O)c1ccccc1O)c1ccc(F)cc1`, the EC50 was 1290 nM.

Take `CC(=O)O[C@H]1C[C@@]2(C)[C@@H](C[C@@H](O)[C@H]3[C@@]4(C)CC[C@@H](O)[C@@H](C)[C@@H]4CC[C@@]32C)/C1=C(\CCC=C(C)C)C(=O)O`: the EC50 was 177 nM.

Consider `CCc1ccc(NC(=O)c2ccc(F)c(S(=O)(=O)NCC3COc4ccccc4O3)c2)cc1` (stereo not drawn), for which the EC50 was 5340 nM.

As to `NC1CCN(c2c(F)cc3c(=O)c(C(=O)O)cn(C4CC4)c3c2Cl)C1` (stereo not drawn), the EC50 is 64 nM.

For the compound `Cc1cccc(/C=C2\Sc3ccc(C(=O)N4CCC(C)CC4)cc3N(C)C2=O)c1`, the EC50 was 2690 nM.

Turning to `O=C(NNC(=S)NC(=O)c1cccnc1)c1ccc(Cl)cc1`, the EC50 was 2640 nM.

Turning to `O=C(CSc1ccccn1)Nc1nonc1[N+](=O)[O-]`, the EC50 was 7310 nM.

Turning to `Cc1nnc(SC(C(=O)Nc2cc(Cl)cc(Cl)c2)c2ccccc2)[nH]c1=O` (stereo not drawn), the EC50 was 10600 nM.

(Values after PubChem BioAssay AID1902 (Broad Institute, 2009).)
